Source: patent US20250268873A1, “COMBINATION OF DUAL ATM AND DNA-PK INHIBITORS AND IMMUNOTHERAPEUTIC AGENTS FOR USE IN CANCER THERAPY” (XRAD THERAPEUTICS, INC., priority 2021, published 2025)

Columns and labels:
ATM = ATM (Homo sapiens (Human), UniProt Q13315); assay: Pharmacodynamic assay, pKAP1/KAP1 in MDA-231 tumors; format: in vivo
Experimental: (§1) FADU or MDA-MB-231 cells were harvested during log phase growth for in vivo implantation. The resuspended cells were washed three times in phosphate buffered saline (PBS) before preparing the working dilution in PBS. FADU cells were diluted to 1×10^7 cells/mL and MDA-MB-231 cells were diluted to 5×10^7 cells/mL. Each mouse was injected subcutaneously in the right flank with 100 μL of the cellular suspension. Tumor growth was monitored until the tumors reached a target volume of at least 100 mm^3, at which point mice were randomly stratified into four treatment groups.
Tumor studies were performed as follows. Mice bearing FADU or MDA-231 tumors were pre-dosed with vehicle alone or compound 569 alone at 3, 6, and 10 mg/kg. Tumors were then irradiated with 10 Gy 45 min after vehicle or compound 569 administration or left unirradiated (vehicle and compound 569 at 10 mg/kg). Tumors were harvested 1 h post radiation.
Tissue homogenates for pharmacodynamic analyses were collected and processed as follows. Tumor tissues from FADU or MDA-MB-231 tumors were flash frozen in liquid nitrogen and pulverized on dry ice using a tissue pulverizer. A portion of the tumor powder was transferred into a microtube, followed by addition of 500 μL of RIPA buffer [[…], pH 8.0, 150 mM NaCl, 0.1% SDS, 0.5% sodium deoxycholate, 1% IGEPAL® CA-630 (Sigma, I8896)]. To 10 ml of RIPA buffer, 2 tablets each of Protease inhibitor and Phosphatase inhibitor (Roche, #04693159001 & #04906837001), 200 μL of 0.1 M PMSF and 160 μL of Aprotinin, (Sigma, A6279) were added. The suspension was homogenized on ice with a pellet pestle motor (KONTES) and incubated on ice for 30 minutes. Cell lysates were centrifuged at 13,200 rpm for 15 min at 4° C. and supernatants were transferred to a new tube and analyzed for protein concentration with a BCA kit (Pierce, 23227), followed by immunoblotting.

mTOR = mTOR (Homo sapiens, UniProt P42345); assay: mTOR Biochemical Assay (LanthaScreen TR-FRET); conditions: ATP 3 μM
Experimental: mTOR Kinase reactions were performed in a 10 μL volume in low-volume 384-well plates. Typically, PerkinElmer model 6008260 plates were used. The composition of the 1× kinase reaction buffer was: 50 mM HEPES pH 7.5, 0.01% Tween 20, 1 mM EGTA, 10 mM MnCl2, and 2 mM DTT. The solution of mTOR enzyme (ThermoFisher, #PR8683B; the final mTOR concentration: 0.5 μg/mL) was added, and the compounds were serially diluted to the final maximal concentration of 100 nM (3 fold series dilution, a total of 10 doses). GFP-4E-BP1 (the final concentration: 0.4 μM) and the ATP solution (the final ATP concentration: 3 μM) were added to the 384-well plate. The plate was incubated at 25° C. for 1 hour, and 10 μL of the EDTA solution (20 mM) and Tb-labeled anti-p4E-BP1 antibody (4 nM) in TR-FRET dilution buffer were added to each well. The plate was sealed, incubated 30 min at 25° C., and read on a plate reader configured for LanthaScreen™ TRFRET.

MDA-MB-231 tumors = assay: In vivo tumor growth delay study, MDA-MB-231 subcutaneous human xenograft mouse model
Experimental: Female NCr nu/nu mice (Crl:NU(NCr)-Foxn1nu, Strain 490) were obtained from Charles River at 5-6 weeks of age.
as §1
Following implantation of the tumor cell lines, mice were monitored once weekly for tumor development. Upon detection, tumors were measured in two dimensions using digital calipers. Tumors were treated after reaching at least 100 mm^3 and were measured two to three times weekly following enrollment in one of the treatment groups. The study endpoint was defined as tumor quintupling from the volume at time of treatment.
The vehicle used in this study was 0.5% (Hydroxypropyl)methyl cellulose (HPMC) and 0.2% Tween80 dissolved in deionized water. The pH of the vehicle was adjusted to 7.0-8.0 and the vehicle was stored at 4° C. On each day of in vivo treatment an appropriate mass of test compound was added to the vehicle at room temperature. The mixture was vortexed as necessary to generate a final concentration of 1.6 mg/mL.
In vivo tumor growth delay study was performed as follows. Following implantation of the tumor cell lines, mice were monitored once weekly for tumor development. Upon development of a tumor measuring at least 100 mm^3, tumor-bearing mice were stratified to one of 4 groups, utilizing 5 mice per group. Tumor volumes were between 100 and 500 mm^3. Vehicle or compound 569 (10 mg/kg) were administered by oral gavage once daily for three consecutive days (qd×3), alone or in combination with focal radiation. The delivered volume of vehicle or compound 569 was adjusted based on body weight of the individual animals. […]
Prism (GraphPad) was used for graphical presentations. […] In order to adjust for the differing tumor sizes at the start of treatment, the relative tumor volume was calculated by dividing the tumor volume at each time point by the volume at baseline. […] When an animal exited the study due to tumor quintupling, the final tumor volume recorded for the animal was included with the data used to calculate the median volume at subsequent time points. […] Differences in quintupling-free survival between the four treatment groups were evaluated with a log-rank test. […]

Chain of ATM (Q13315 whole entry): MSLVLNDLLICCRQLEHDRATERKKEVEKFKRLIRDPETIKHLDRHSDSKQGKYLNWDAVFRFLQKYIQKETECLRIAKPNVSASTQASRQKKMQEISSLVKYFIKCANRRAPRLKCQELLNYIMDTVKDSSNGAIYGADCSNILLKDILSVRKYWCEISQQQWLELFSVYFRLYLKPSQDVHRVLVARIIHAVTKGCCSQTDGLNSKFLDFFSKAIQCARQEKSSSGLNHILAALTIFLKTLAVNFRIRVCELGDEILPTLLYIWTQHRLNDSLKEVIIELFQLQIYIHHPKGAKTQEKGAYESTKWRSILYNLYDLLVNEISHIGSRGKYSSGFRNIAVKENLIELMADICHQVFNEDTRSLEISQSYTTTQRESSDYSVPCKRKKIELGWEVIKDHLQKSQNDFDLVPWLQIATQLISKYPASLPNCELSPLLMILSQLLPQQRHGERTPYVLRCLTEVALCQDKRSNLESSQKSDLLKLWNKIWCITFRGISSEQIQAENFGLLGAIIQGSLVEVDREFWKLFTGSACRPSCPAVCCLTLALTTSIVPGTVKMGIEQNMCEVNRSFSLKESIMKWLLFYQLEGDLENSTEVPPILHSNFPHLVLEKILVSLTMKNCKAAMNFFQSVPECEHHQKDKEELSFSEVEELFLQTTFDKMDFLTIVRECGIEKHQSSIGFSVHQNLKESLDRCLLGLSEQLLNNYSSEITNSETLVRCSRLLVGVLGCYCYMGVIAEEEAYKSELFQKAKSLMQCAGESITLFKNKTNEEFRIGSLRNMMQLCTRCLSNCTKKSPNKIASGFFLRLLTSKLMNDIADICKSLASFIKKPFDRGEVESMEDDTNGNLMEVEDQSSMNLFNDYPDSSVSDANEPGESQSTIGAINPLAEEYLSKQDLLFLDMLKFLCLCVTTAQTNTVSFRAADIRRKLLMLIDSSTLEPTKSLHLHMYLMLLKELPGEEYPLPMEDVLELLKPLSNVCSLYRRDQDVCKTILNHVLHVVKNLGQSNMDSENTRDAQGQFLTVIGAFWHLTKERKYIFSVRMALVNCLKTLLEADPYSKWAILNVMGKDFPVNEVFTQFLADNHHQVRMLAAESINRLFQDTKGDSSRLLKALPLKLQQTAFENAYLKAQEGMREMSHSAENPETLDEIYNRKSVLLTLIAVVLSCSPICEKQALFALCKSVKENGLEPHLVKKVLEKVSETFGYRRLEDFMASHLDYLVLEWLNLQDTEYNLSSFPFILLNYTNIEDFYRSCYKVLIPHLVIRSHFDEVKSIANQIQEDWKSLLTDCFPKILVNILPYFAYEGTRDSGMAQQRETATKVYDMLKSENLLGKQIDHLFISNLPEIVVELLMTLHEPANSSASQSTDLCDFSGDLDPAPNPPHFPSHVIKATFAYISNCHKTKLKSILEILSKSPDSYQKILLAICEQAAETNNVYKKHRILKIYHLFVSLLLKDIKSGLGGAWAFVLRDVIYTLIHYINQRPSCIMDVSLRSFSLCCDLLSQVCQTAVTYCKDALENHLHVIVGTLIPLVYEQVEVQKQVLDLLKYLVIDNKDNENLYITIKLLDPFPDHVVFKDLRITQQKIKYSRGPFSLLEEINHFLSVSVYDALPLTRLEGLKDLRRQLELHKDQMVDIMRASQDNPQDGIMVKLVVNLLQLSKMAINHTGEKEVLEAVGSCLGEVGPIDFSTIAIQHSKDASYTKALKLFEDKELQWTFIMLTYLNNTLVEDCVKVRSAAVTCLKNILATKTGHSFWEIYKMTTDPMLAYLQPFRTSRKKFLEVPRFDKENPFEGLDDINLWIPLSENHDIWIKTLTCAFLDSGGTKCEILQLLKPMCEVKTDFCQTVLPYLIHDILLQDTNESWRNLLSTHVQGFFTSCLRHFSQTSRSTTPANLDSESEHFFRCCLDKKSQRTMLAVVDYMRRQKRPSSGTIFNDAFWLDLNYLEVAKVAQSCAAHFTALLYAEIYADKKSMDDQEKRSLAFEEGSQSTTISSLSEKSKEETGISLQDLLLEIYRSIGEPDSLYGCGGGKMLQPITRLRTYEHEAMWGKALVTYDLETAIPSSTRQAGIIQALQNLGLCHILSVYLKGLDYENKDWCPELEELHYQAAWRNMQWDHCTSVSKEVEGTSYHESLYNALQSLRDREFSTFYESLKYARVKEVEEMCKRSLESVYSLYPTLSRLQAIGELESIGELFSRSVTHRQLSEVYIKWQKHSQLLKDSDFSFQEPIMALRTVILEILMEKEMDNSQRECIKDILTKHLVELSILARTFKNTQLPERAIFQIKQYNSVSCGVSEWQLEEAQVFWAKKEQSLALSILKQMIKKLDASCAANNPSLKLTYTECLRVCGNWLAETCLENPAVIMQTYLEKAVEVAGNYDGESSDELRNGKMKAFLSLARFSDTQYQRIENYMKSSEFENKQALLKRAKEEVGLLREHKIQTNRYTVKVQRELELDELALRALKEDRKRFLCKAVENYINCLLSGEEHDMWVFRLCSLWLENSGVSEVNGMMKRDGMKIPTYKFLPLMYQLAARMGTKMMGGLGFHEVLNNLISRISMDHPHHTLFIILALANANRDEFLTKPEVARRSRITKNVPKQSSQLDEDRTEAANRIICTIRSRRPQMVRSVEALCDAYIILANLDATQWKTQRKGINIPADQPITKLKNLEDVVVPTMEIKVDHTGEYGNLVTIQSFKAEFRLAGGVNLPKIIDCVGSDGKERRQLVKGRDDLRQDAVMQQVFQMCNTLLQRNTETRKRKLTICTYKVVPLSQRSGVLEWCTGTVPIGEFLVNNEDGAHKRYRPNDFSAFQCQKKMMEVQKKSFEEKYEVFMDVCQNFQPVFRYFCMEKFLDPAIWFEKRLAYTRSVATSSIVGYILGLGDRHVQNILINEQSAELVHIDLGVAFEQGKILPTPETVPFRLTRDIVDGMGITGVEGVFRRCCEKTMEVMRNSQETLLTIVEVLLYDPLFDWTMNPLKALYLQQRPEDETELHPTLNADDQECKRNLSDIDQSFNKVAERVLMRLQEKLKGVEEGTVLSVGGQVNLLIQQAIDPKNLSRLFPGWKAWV

`CC(C)NCCOc1ncc(-c2cc3c4c(cnc3cc2F)N(C)C(=O)C42CCC2)cc1NS(C)(=O)=O` [Compound 569, N-(5-(7′-Fluoro-3′-methyl-2′-oxo-2′,3′-dihydrospiro[cyclobutane-1,1′-pyrrolo[2,3-c]quinolin]-8′-yl)-2-(2-(isopropylamino)ethoxy)pyridin-3-yl)methanesulfonamide] showed a pKAP1/KAP1 (ATM; 10 Gy, 3 mg/kg oral) of 0.327, a pKAP1/KAP1 (ATM; 10 Gy, 6 mg/kg oral) of 0.0130 and a pKAP1/KAP1 (ATM; 10 Gy, 10 mg/kg oral) of 0.00901. For the same molecule, the pKAP1/KAP1 (ATM; no radiation, 10 mg/kg oral) was −0.00319, the IC50 (mTOR) was over 100 nM and the “median time to endpoint (tumor quintupling)” value (MDA-MB-231 tumors; Group 2: compound 569 10 mg/kg po qd×3 alone) was 17 days. The “tumor growth curves and quintupling-free survival” value (MDA-MB-231 tumors; Group 2: compound 569 10 mg/kg qd×3 alone vs vehicle (Group 1)) was “nearly identical to those for Group 1”, the “median time to endpoint (tumor quintupling)” value (MDA-MB-231 tumors; Group 4: compound 569 10 mg/kg 45 min prior to 3 Gy focal radiation, qd×3) was 43 days and the “overall survival (quintupling-free)” value (MDA-MB-231 tumors; Group 4: compound 569 + 3 Gy qd×3, P<0.01, logrank) was “significantly improved compared to Group 1, Group 2, and Group 3”.
